ChEMBL document CHEMBL1154847, “Steroidal saponins from Chlorophytum orchidastrum” (J Nat Prod, 2010)
pIC50: −log10 of the molar value.

Key:
[1] = system: HCT-116; test: Cytotoxicity against human HCT116 cells by MTT assay; type: functional, cell-based
[2] = system: HT-29; test: Cytotoxicity against human HT-29 cells by MTT assay; type: functional, cell-based

Row | Compound | pIC50 [1] | pIC50 [2]
1 | C[C@H]1CC[C@@]2(OC1)O[C@H]1C[C@H]3[C@@H]4CC[C@H]5C[C@@H](O[C@@H]6[C@@H](O)[C@H](OC[C@H]7O[C@@H](O[C@@H]8[C@@H](O)[C@H](O[C@H]9[C@H](O)[C@@H](CO)O[C@@H](O[C@@H]%10[C@H](O)[C@@H](O[C@@H]%11O[C@@H](C)[C@H](O)[C@@H](O)[C@H]%11O)[C@H](O)O[C@@H]%10CO)[C@@H]9O[C@@H]9OC[C@H](O)[C@H](O)[C@H]9O)OC[C@H]8O)[C@H](O)[C@@H](O[C@@H]8O[C@H](CO[C@@H]9O[C@@H](CO)[C@H](O)[C@H]9O)[C@@H](O)[C@H](O)[C@H]8O)[C@@H]7O)O[C@H]6CO)CC[C@]5(C)[C@H]4CC[C@]3(C)[C@H]1[C@@H]2C [ORCHIDASTROSIDE C] | 5.87 | 5.44
2 | C[C@H]1CC[C@@]2(OC1)O[C@H]1C[C@H]3[C@@H]4CC[C@H]5C[C@@H](O[C@@H]6[C@@H](O)[C@H](OC[C@H]7O[C@@H](O[C@@H]8[C@@H](O)[C@H](O[C@H]9[C@H](O)[C@@H](CO)O[C@@H](O[C@@H]%10[C@H](O)[C@@H](O)[C@H](O)O[C@@H]%10CO)[C@@H]9O[C@@H]9O[C@H](CO)[C@H](O)[C@H](O)[C@H]9O)O[C@H](CO)[C@H]8O)[C@H](O)[C@@H](O[C@@H]8O[C@H](CO[C@@H]9O[C@@H](CO)[C@H](O)[C@H]9O)[C@@H](O)[C@H](O)[C@H]8O)[C@@H]7O)O[C@H]6CO)[C@H](O)C[C@]5(C)[C@H]4CC[C@]3(C)[C@H]1[C@@H]2C [ORCHIDASTROSIDE E] | 5.15 | 5.15
3 | C[C@H]1CC[C@@]2(OC1)O[C@H]1C[C@H]3[C@@H]4CC[C@H]5C[C@@H](O[C@@H]6[C@@H](O)[C@H](OC[C@H]7O[C@@H](O[C@@H]8[C@@H](O)[C@H](O[C@H]9[C@H](O)[C@@H](CO)O[C@@H](O[C@@H]%10[C@H](O)[C@@H](O)[C@H](O)O[C@@H]%10CO)[C@@H]9O[C@@H]9O[C@H](CO)[C@H](O)[C@H](O)[C@H]9O)O[C@H](CO)[C@H]8O)[C@H](O)[C@@H](O[C@@H]8OC[C@@H](O)[C@H](O)[C@H]8O)[C@@H]7O)O[C@H]6CO)[C@H](O)C[C@]5(C)[C@H]4CC[C@]3(C)[C@H]1[C@@H]2C [ORCHIDASTROSIDE F] | 5.67 | 5.05
